In PMC3204975, “A Photolyase-Like Protein from Agrobacterium tumefaciens with an Iron-Sulfur Cluster” (PLoS ONE, 2011):

Legend:
PhrB = target: T1, PhrB (Agrobacterium fabrum, UniProt A9CH39); assay: UV-vis absorption and blue-light photoreduction of co-purified cofactor; assay type: binding; settings: co-purified from E. coli; 24 h dark, then 470 nm and 405 nm light with 20 mM DTT, pH 7.8, 4°C
T1 construct: full gene (1524 bp, 507 residues), C-terminal 6xHis-tag (pET-21b), expressed in E. coli ER2566, tag not reported cut
T1 sequence (A9CH39 whole entry): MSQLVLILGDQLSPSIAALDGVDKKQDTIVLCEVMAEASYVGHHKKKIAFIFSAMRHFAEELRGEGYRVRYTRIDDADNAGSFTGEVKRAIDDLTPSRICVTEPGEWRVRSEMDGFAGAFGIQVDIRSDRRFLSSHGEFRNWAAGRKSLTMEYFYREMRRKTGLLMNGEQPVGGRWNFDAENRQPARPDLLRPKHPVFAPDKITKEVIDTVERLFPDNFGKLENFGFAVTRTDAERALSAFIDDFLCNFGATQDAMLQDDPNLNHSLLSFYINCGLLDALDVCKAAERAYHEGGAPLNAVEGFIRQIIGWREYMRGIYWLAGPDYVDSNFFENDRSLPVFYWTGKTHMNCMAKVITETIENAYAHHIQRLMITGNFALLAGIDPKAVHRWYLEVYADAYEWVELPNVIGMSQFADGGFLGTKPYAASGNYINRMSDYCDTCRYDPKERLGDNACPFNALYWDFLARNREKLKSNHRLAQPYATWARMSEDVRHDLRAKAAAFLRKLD

PhrA = target: T2, PhrA (Agrobacterium fabrum, UniProt A9CJC9); assay: as above; assay type: binding; settings: co-purified from E. coli; 24 h dark, then 470 nm light with 10 mM DTT, pH 7.8, 4°C
T2 construct: full gene, N-terminal His6-tag (pQE30UA), expressed in E. coli XL1 blue, tag not reported cut
T2 sequence (A9CJC9 1-479): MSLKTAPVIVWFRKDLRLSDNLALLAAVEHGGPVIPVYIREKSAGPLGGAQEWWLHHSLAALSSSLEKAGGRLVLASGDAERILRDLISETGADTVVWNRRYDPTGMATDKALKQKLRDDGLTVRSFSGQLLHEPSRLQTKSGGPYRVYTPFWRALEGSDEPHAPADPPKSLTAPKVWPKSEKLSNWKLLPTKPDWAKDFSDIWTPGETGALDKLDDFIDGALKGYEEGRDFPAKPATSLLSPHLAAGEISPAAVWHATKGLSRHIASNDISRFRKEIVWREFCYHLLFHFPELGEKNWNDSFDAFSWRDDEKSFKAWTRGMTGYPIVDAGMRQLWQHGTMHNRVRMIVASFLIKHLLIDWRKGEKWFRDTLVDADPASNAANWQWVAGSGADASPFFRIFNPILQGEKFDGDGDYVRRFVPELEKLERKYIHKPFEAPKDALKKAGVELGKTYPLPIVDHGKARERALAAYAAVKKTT

Cc1cc2nc3c(=O)[nH]c(=O)nc-3n(C[C@H](O)[C@H](O)[C@H](O)COP(=O)(O)OP(=O)(O)OC[C@H]3O[C@@H](n4cnc5c(N)ncnc54)[C@H](O)[C@@H]3O)c2cc1C [FAD]
UV-vis absorption and blue-light photoreduction of co-purified cofactor (PhrB): the FAD cofactor in PhrB is photoreduced to the fully reduced FAD state
UV-vis absorption and blue-light photoreduction of co-purified cofactor (PhrA): a nearly stoichiometric ratio of both cofactors to the PhrA apoprotein was determined
